# Assay results reported in patent US9895363B2, “Methods for modulating function of proliferating cell nuclear antigen (PCNA) and treating cancer with PCNA-targeting compounds” (University of Cincinnati, priority 2010, dated 2018).
# pIC50: −log10 of the molar value.
# Assays:
# [1] = tested on: primary human mammary epithelial cells; assay: Growth inhibition, mammary epithelial cells; type: cell-based; conditions: Epithelial cell, normal cells, read-out: IC50 Values, Breast Epithelial Cells
# Procedure: (§1) Growth inhibitory effects of PCNA-I1 and PCNA-I2 were assessed in human cancer cell lines, mouse cancer cell lines, immortalized mouse cell lines, and human primary cell lines. Specifically, growth inhibitory effects of PCNA-I1 and PCNA-I2 were assessed using MTT staining in the following cells lines: 1) human cancer cell lines including LNCaP (androgen receptor […]), 22Rv1, DU-145, LAPC-4, and PC-3 (androgen receptor […]) prostate cancer cells; MCF-7 and T47D breast cancer cells; A375 and MDA-MB435 melanoma cells; 2) mouse cancer cell lines including TRAMP-C2RE3 prostate cancer cells, B16 and K1735 melanoma cells, UV2237 fibrosarcoma cells, and CT-26 colon cancer cells; 3) immortalized mouse lung cell lines and mouse endothelial cell lines; and 4) primary human cell lines including umbilical endothelial cells (HUVEC, PromoCell, Heidelberg, Germany), primary bone marrow mesenchymal stem cells (HuMSC, PromoCell), primary human mammary epithelial cells (HuBrEC, Lonza, Walkersville, Md.), primary human prostate epithelial cells (HuPrEC, Lonza), and primary mouse spleen lymphocytes (isolated in this laboratory), and primary mouse bone marrow stromal cells (isolated in this laboratory). […]
# (§2) IC50 values were derived from growth inhibition curves. […] Inhibition of cell growth was calculated using the formula: growth inhibition (%)=(1−A570 of treated/A570 of control)×100. […]
# [2] = Toxicity evaluation in tumor-bearing mice; type: in vivo
# Procedure: The therapeutic effects of PCNA-I1 were evaluated in LNCaP cells and 22Rv1 tumor models. LNCaP or 22Rv1 cells (1-2×10^6 cells in gelfoam) were implanted into the subcutis of male nude mice. From four to five days later, tumor-bearing mice were intraperitoneally injected with 10 mg/kg or 50 mg/kg of PCNA-I1. The therapy was continued at three times/week until termination of experiments. Control and treated tumor-bearing mice were monitored daily. Mouse body weight was recorded for toxicity evaluation twice a week and tumor size was measured using calipers twice a week. The experiments were terminated when mice in control groups were moribund. Additionally, to further evaluate potential liver and renal toxicity of PCNA-I1, the blood of tumor-bearing mice were sampled after the treatment with PCNA-I1 for 8 weeks.
# p21Waf1/Cip1 and PCNA = biological target: T1, p21Waf1/Cip1 and PCNA (Homo sapiens, UniProt P12004); assay: Association of p21Waf1/Cip1 to PCNA (immunoprecipitation); type: cell-based; conditions: Pc-3 and LNCaP, 0.5 μM, 8 H; FIG. 13
# T1 construct: endogenous in cells; host or cells: PC-3, LNCaP
# Procedure: Chromatin-associated trimeric PCNA executes its function through numerous partner proteins, including p21Waf1/Cip1. To validate that treatment with PCNA-I1 reduces function of PCNA, the binding of p21Waf1/Cip1 to PCNA was investigated. Specifically, Pc-3 and LNCaP cells were treated with PCNA-I1 (0.5 μM) for 8 H and lysed in buffer B as previously discussed. Chromatin-associated protein was extracted in buffer D containing 0.42 M NaCl. The chromatin-associated protein was precipitated with the antibody to PCNA, and was resolved in SDS-PAGE, and probed with antibodies to p21Waf1/Cip1 and PCNA.
# [3] = tested on: primary mouse bone marrow stromal cells; assay: Growth inhibition, mouse bone marrow stromal cells; type: cell-based; conditions: normal cells, read-out: IC50 Values, Bone Marrow Stroma Cells
# Procedure: as §1, §2
# LNCaP cells = assay: DNA damage, apoptosis and cell cycle proteins by immunoblot, LNCaP; type: cell-based, Human
# Procedure: Fluorescence-activated cell sorting (FACS) analysis was performed on both PC-3 cells and LNCaP cells using PCNA-I1. Specifically, cells were treated with 1 or 10 μM PCNA-I1 and sampled for the flow cytometry analysis at 24 H, 48 H, and 72 H. Expression of DNA damage and apoptosis-related proteins in PC-3 cells and LNCaP cells was also determined. Cisplatin, a well-known drug that induces DNA damage and apoptosis, was included in the experiment. LNCaP cells were treated for 6 H, 12 H, or 18 H with 10 μM PCNA-I1, 10 μM cisplatin, or both.
# To further explore the differential effects of PCNA-I1 on LNCaP and PC-3 cells, the effects of PCNA-I1 and cisplatin on expression of cell cycle- and apoptosis-related proteins in the two cell lines were compared. LNCaP cells and PC-3 cells were treated with 1 μM PCNA-I1 and/or 5 μM cisplatin for 12 H, 18 H, or 24 H and cell lysates were sampled for immunoblotting.
# T1 sequence (P12004 whole entry): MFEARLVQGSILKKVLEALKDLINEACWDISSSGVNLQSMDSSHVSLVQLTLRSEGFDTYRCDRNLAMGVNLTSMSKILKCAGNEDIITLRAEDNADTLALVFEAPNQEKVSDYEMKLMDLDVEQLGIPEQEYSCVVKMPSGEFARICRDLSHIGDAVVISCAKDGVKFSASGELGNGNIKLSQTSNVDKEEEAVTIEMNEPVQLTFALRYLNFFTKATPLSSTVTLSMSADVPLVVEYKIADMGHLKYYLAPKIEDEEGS
smiles,measurement,setting,value
Cc1ccsc1C(=O)N/N=C/c1ccc2ccccc2c1O [PCNA-I1],pIC50,[1],5.78
same,Body weight of tumor-bearing mice,"[2]; 10 or 50 mg/kg i.p. every other day, up to 8 weeks",did not cause significant reduction in the body weight
same,Aspartate transaminase (AST or SGOT),"[2]; treatment for 8 weeks, FIG. 21",not significantly altered
same,Blood urea nitrogen (BUN),"[2]; treatment for 8 weeks, FIG. 21",not significantly altered
same,Serum alanine transaminase (ALT or SGPT),"[2]; treatment for 8 weeks, FIG. 21",not significantly altered
same,Level of chromatin-associated PCNA and p21Waf1/Cip1,p21Waf1/Cip1 and PCNA,reduced the level of PCNA and p21Waf1/Cip1
same,pIC50,[3],5.72
same,Expression of retinoblastoma (Rb) and cyclin D1,"LNCaP cells; LNCaP and PC-3, 1 μM PCNA-I1 and/or 5 μM cisplatin, 12-24 H",moderately downregulated expression of cell cycle-regulating proteins
same,"Phosphorylation of p53, single agent","LNCaP cells; LNCaP, 10 μM",induced
same,Expression of p21 protein,"LNCaP cells; LNCaP, 10 μM PCNA-I1 and/or 10 μM cisplatin",enhanced expression of p21 protein at 6 H and 12 H
same,"PARP cleavage, single agent","LNCaP cells; LNCaP, 10 μM alone",induced PARP cleavage
same,"DNA double strand break (γH2AX induction), single agent","LNCaP cells; LNCaP, 10 μM alone, 6-18 H, FIG. 17(A)",induced moderate double strand break (DSB) of DNA
